Values quoted from earlier work as cited in US20160102058A1, “FLUORO-PERHEXILINE COMPOUNDS AND THEIR THERAPEUTIC USE” (THE UNIVERSITY COURT OF THE UNIVERSITY OF ABERDEEN, priority 2013, published 2016).

Key:
[1] = tested on: CPT-2; settings: read-out: inhibition of CPT-2; cited from earlier work
[2] = EM versus PM; cited from earlier work

For `C1CCC(C(CC2CCCCN2)C2CCCCC2)CC1` (centres unmarked) [Perhexiline, 2-(2,2-dicyclohexylethyl)piperidine], the IC50 [1] is listed as 79 µM and the “difference in perhexiline clearance and required dosage between EM and PM patients” value [2] is listed as ~100 fold.
